Columns and labels:
[1] = target: T1, bacterial luciferase (lux) in protein extracts of HEK293 cells (Photorhabdus luminescens, UniProt P19839); test: In vitro supplementation assays of lux cell extracts (oxidoreductase, aldehyde); assay type: biochemical, P. luminescens; settings: 0.002% (w/v) n-decanal
T1 construct: expressed in transfected cells; host or cells: HEK293 cells stably carrying pLuxAB (luxA-IRES-luxB, CMV promoter), co-transfected with pLuxCDEfrp:WT or pLuxCDEfrp:CO; The soluble protein extract was made by freeze/thaw
T1 sequence (P19839 1-360): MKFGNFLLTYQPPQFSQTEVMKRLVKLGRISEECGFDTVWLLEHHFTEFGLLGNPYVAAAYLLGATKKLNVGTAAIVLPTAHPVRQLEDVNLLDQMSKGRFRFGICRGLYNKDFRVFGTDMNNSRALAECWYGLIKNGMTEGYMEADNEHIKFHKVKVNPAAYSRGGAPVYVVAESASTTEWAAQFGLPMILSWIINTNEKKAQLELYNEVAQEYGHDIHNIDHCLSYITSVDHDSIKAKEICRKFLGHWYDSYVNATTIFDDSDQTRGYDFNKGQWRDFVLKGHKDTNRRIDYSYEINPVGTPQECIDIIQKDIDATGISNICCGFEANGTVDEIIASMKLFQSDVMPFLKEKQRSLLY
T1 sequence (P19840 1-327 partner): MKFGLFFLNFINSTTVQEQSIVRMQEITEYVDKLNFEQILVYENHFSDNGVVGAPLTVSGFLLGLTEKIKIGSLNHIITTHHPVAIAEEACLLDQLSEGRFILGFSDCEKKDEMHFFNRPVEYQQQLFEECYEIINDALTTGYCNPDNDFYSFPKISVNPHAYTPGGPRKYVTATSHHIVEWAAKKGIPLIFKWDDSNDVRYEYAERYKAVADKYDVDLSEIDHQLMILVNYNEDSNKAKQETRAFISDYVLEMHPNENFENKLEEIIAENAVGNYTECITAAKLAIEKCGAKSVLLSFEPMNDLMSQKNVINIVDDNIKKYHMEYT
Experimental: Bioluminescence was measured using an FB 14 luminometer (Zylux) with a 1 sec integration time. To prepare the sample for in vitro bioluminescent measurement, 400 μl of the isolated protein extract was combined with 500 μl of either oxidoreductase supplemented light assay solution containing 0.1 mM NAD(P)H, 4 μM FMN, 0.2% (w/v) BSA and 1 U of oxidoreductase protein isolated from V. fischeri (Roche), or oxidoreductase deficient light assay solution (distilled water substituted for the 1 U of oxidoreductase protein). Following the initial bioluminescent reading, samples were amended with 0.002% (w/v) n-decanal and the readings were continued to determine if additional aldehyde could increase light output. All bioluminescent signals were normalized to total protein concentration as determined by BCA protein assay (Pierce) and reported as relative light units (RLU)/mg total protein. […] A 15 μl aliquot of cells was removed and counted using a hemocytometer to allow all values to be normalized to viable cell counts. […]
Total protein was extracted from co-transfected pLuxCDEfrp:CO/pLuxAB or pLuxCDEfrp:WT/pLuxAB cell lines or the pTa2AluxAB transfected cell line using a freeze/thaw procedure. […] Bioluminescence was measured using an FB14 luminometer (Zylux) with a 1 sec integration time. […]

[2] = test system: constitutively bioluminescent HEK293 cells expressing pLuxCDEfrp/pLuxAB; test: Bioluminescent measurement in response to toxic chemical exposure (n-decanal); assay type: cell-based, human
Experimental: To determine the ability of constitutively bioluminescent HEK293 cells to function as a bioreporter for toxic chemical exposure, cells stably expressing pLuxCDEfrp/pLuxAB were exposed to increasing concentrations of the cytotoxic aldehyde n-decanal. HEK293 cells previously determined to be capable of continuous bioluminescent output from the expression of the pLuxCDEfrp/pLuxAB plasmids were passaged into 75 cm^2 tissue culture flasks (Corning) and grown at 37° C. and 5% CO^2 until they reached 90% confluence. Cells were then harvested by trypsinization and cell number was determined as the average of two counts using a hemocytometer. Approximately 1×10^6 cells per well were plated in all wells in opaque 24-well tissue culture plates (Costar) in DMEM without phenol red and supplemented with 10% fetal bovine serum, 0.01 mM non-essential amino acids, and 0.01 mM sodium pyruvate. Triplicate wells were treated with serial dilutions of n-decanal ranging from 0.1% to 1×10^−5%, with a control set receiving no n-decanal amendment to determine maximal bioluminescent expression. Photon counts were then recorded using an IVIS Lumina in vivo imaging system and analyzed with Living Image 3.0 software (Caliper Life Sciences). The change in light output over time was determined in photons (p)/sec/cm^2/steridian (sr) for each well using integration times of […] once every hour for 24 h and reported as the average of three runs with the standard error of the mean.

[3] = test system: tetracycline responsive lux reporter HEK293 cells (pLuxAB/pLuxCDEfrp-TET); test: Bioluminescent measurement in response to doxycycline; assay type: cell-based, human; settings: for average total flux: 24 h period; for range of total flux over the course of the assay: after 1 h post treatment
Experimental: Cell lines displaying the greatest upregulation of luxC gene transcription following treatment with 10 ng and 100 ng Doxycycline/ml were passaged into 75 cm^2 tissue culture flasks (Corning) and grown at 37° C. and 5% CO2 until they reached 90% confluence. Cells were then harvested by trypsinization and cell number was determined as the average of two counts using a hemocytometer. Approximately 1×10^6 cells per well were plated in triplicate in opaque 24-well tissue culture plates (Costar) in DMEM without phenol red and supplemented with 10% fetal bovine serum, 0.01 mM non-essential amino acids, and 0.01 mM sodium pyruvate. Immediately post plating, wells were spiked with either 0, 10, 100, or 500 ng Doxycycline/ml. Photon counts were then recorded using an IVIS Lumina in vivo imaging system and analyzed with Living Image 3.0 software (Caliper Life Sciences). The change in light output over time was determined in photons (p)/sec (s) for each well by averaging the photon output over integration times of 10 min and reported with the standard error of the mean.

[4] = test system: luxC gene transcription under the tetracycline response element in HEK293 cells (pLuxAB/pLuxCDEfrp-TET); test: rt-PCR of luxC transcription in response to doxycycline; assay type: cell-based, human; settings: for average CT value for luxC detection: 24 h, average of eleven cell lines; for increase in luxC transcription / reduction of cycles to reach CT: best performing cell line
Experimental: Twenty-four h post-transfection, the medium was removed and replaced with complete medium supplemented with the appropriate antibiotic. Selection of successfully transfected clones was performed by refreshing selective medium every 4-5 d until all untransfected cells had died. At this time, colonies of transfected cells were removed by scraping, transferred to individual 25 cm^2 cell culture flasks, and grown in complete medium supplemented with the appropriate antibiotics. To screen the resulting cell lines for the ability to regulate luxC transcription in response to doxycycline, relative reverse transcription PCR (rt-PCR) was used to determine the level of luxC mRNA present 24 h following the addition of 0, 10, or 100 ng doxycycline/ml to the complete growth medium. To this end, each isolated cell line was split into 4 25 cm^2 cell culture flasks upon reaching 80% confluence. Cells were then grown at 37° C. and 5% CO2 until again reaching ˜80% confluence. At this point, one of the flasks was routinely passaged to maintain a stock of cells for future use. The remaining 3 flasks were spiked with 0, 10, or 100 ng doxycycline/ml and returned to the incubator. Twenty-four h post doxycycline addition, cells were harvested and total RNA was isolated using an RNeasy isolation kit (Qiagen). Isolated RNA was used directly for rt-PCR analysis, and cell lines displaying the greatest range in luxC transcription between 0 ng Doxycycline/ml treatment and either 10 ng or 100 ng doxycycline/ml treatment were selected for bioluminescent screening.

[5] = native state, 37° C.; cited from earlier work

For `CCCCCCCCCC=O` [n-decanal], the “increase in light output” value ([1]; extracts of cells with codon-optimized genes) was 58 fold, the “increase in light output” value ([1]; extracts of cells with wild-type genes) was 16 fold and the “molar concentration corresponding to the 0.01% treatment” value ([2]; 0.01% decanal) was roughly 640 µM. For the same compound, the “start of intermittent deviation in bioluminescent flux” value ([2]; 0.01% decanal, post addition) was 40 min, the “time after addition until deleterious effects consistently observable” value ([2]; 0.01% n-decanal) was 4 h and the “effect on bioluminescent output” value ([2]; 0.1% n-decanal) was “reduced bioluminescent output immediately following addition”. The “concentration at which the aldehyde became toxic to the HEK293 cell line” value ([2]; 24 h assay) was no less than 0.01% and the “effect on bioluminescent output” value ([2]; remaining treatment levels (below 0.01%, down to 1×10^−5%)) was “could not be statistically differentiated from cells not receiving treatment”.

In the case of `C[C@H]1c2cccc(O)c2C(=O)C2=C(O)[C@]3(O)C(=O)C(C(N)=O)=C(O)[C@@H](N(C)C)[C@@H]3[C@@H](O)[C@@H]21` [doxycycline], the average total flux ([3]; 10 ng doxycycline/ml, not significant vs untreated (p=0.06)) is reported as 11,500 (±200) p/s, the “range of total flux over the course of the assay” value ([3]; 10 ng doxycycline/ml) is reported as 1,900 p/s and the “incubation period to significant up regulation in bioluminescent output” value ([3]; 100 ng doxycycline/ml) is reported as 1 h. For the same compound, the average total flux ([3]; 100 ng doxycycline/ml, significant vs untreated (p=1.1×10^−5)) was 12,500 (±200) p/s, the “range of total flux over the course of the assay” value ([3]; 100 ng doxycycline/ml) was 1,800 p/s and the maximum measured flux ([3]; induced with 100 ng doxycycline/ml) was 1.3 (±0.03)×10^4 p/s. For the same compound, the “average CT value for luxC detection” value ([4]; 10 ng doxycycline/ml) was 11.9 (±0.7) cycles, the “average CT value for luxC detection” value ([4]; 100 ng doxycycline/ml) was 11.5 (±0.6) cycles and the “increase in luxC transcription” value ([4]; 10 ng doxycycline/ml) was “approximately 11 fold”. For the same compound, the “reduction of cycles to reach CT” value ([4]; 10 ng doxycycline/ml) was 3.5 cycles, the “increase in luxC transcription” value ([4]; 100 ng doxycycline/ml) was roughly 20 fold and the “reduction of cycles to reach CT” value ([4]; 100 ng doxycycline/ml) was 4.3 cycles.

In the case of “firefly luciferase protein: firefly luciferase reporter protein, heat labile under whole animal imaging conditions”, the half life [5] is listed as no less than 3 min.
